Some test systems named below: UO-31 renal; SNB-19 CNS; PC-3 prostate; U251 CNS; SK-MEL-5 melanoma; NCI-H23 lung; HOP-62 NSCLC; RPMI-8226 leukemia; EKVX NSCLC; UACC-62 melanoma; SNB-75 CNS; SR leukemia; HCT-116 colon; SK-MEL-2 melanoma; T-47D breast; A549 NSCLC; HCC-2998 colon; TK-10 renal; HCT-15 colon; A498 renal.
Holding throughout (assay): growth of human tumour cells (NCI), 48 h

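Method: 48-hour compound exposure of cells in 96-well plates, five concentrations, linear interpolation of endpoints. TGI is the concentration that stops growth completely.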

As to `O=C1CCCC/C1=C\c1ccc([N+](=O)[O-])cc1`, the TGI in the assay on UO-31 renal is 36.3 µM; in the assay on SNB-19 CNS, 32.5 µM; with PC-3 prostate, 4.46 µM; in the assay on U251 CNS, 29.6 µM; in the assay on SK-MEL-5 melanoma it was over 100 µM; in the assay on NCI-H23 lung, 54.8 µM. For the same compound, the TGI in the assay with HOP-62 NSCLC was 29 µM; with RPMI-8226 leukemia, 44.3 µM; in the assay on EKVX NSCLC, over 100 µM; with UACC-62 melanoma it was 30.7 µM; in the assay on SNB-75 CNS, 46 µM; in the assay with SR leukemia, over 100 µM. In addition, the TGI in the assay on HCT-116 colon worked out at 25.7 µM; in the assay on SK-MEL-2 melanoma, 46 µM; in the assay on T-47D breast, 65.3 µM; in the assay on A549 NSCLC, 95.9 µM; with HCC-2998 colon, 27.2 µM; with TK-10 renal, 26.3 µM.
With `COc1ccc(/C=C2\C[C@H]3[C@@H]4CCC5=C/C(=N/O)CC[C@]5(C)[C@H]4CC[C@]3(C)\C2=N\O)cc1`, the TGI was 57.5 µM with UO-31 renal; over 100 µM in the assay with SNB-19 CNS; over 100 µM with HCT-15 colon; over 100 µM in the assay with PC-3 prostate; over 100 µM in the assay on U251 CNS; 25.9 µM with SK-MEL-5 melanoma. In addition, the TGI is over 100 µM in the assay with NCI-H23 lung; over 100 µM in the assay with HOP-62 NSCLC; 93.5 µM in the assay with RPMI-8226 leukemia; over 100 µM in the assay with EKVX NSCLC; over 100 µM in the assay on UACC-62 melanoma; over 100 µM in the assay with SNB-75 CNS. Further, the TGI was 86 µM in the assay with SR leukemia; over 100 µM in the assay on HCT-116 colon; 72.4 µM in the assay with SK-MEL-2 melanoma; over 100 µM in the assay with T-47D breast; over 100 µM in the assay on A549 NSCLC; 49.7 µM in the assay with HCC-2998 colon. Besides, in the assay with TK-10 renal, the TGI is over 100 µM.
For `COC(=O)C1Cc2c(OC)ccc(OC)c2C(O)C1C(=O)OC` (stereo not drawn), the TGI in the assay on UO-31 renal, in the assay on SNB-19 CNS, in the assay on PC-3 prostate, with U251 CNS, with SK-MEL-5 melanoma and in the assay on NCI-H23 lung was over 100 µM in each case. For the same compound, the TGI with HOP-62 NSCLC, with RPMI-8226 leukemia, in the assay with EKVX NSCLC, in the assay on UACC-62 melanoma, with SNB-75 CNS and in the assay on SR leukemia was over 100 µM each time. Moreover, the TGI in the assay on HCT-116 colon, in the assay with SK-MEL-2 melanoma, in the assay with T-47D breast, with A549 NSCLC and with TK-10 renal was over 100 µM in each case.
As for `CN=C(Nc1ccc(OC)c2ccccc12)SC`, the TGI in the assay on SNB-19 CNS, with HCT-15 colon, in the assay on PC-3 prostate, in the assay with U251 CNS, in the assay with SK-MEL-5 melanoma and in the assay with NCI-H23 lung was over 10 µM throughout. Also, the TGI in the assay with HOP-62 NSCLC, with RPMI-8226 leukemia, with UACC-62 melanoma, in the assay with SNB-75 CNS, in the assay with SR leukemia and in the assay with HCT-116 colon was over 10 µM each time. Further, the TGI in the assay with T-47D breast, in the assay on A549 NSCLC, with HCC-2998 colon and in the assay with TK-10 renal was over 10 µM each time.
For the compound `COC(=O)CCC1(CCC(=O)OC)CCCCCCC(CCC(=O)OC)(CCC(=O)OC)C(=O)C1=O`, the TGI in the assay with UO-31 renal is 76.7 µM; with SNB-19 CNS, over 100 µM; in the assay with HCT-15 colon, over 100 µM; with PC-3 prostate, over 100 µM; with U251 CNS it was over 100 µM; with SK-MEL-5 melanoma, over 100 µM. For the same compound, the TGI with A498 renal, in the assay with NCI-H23 lung, with HOP-62 NSCLC, in the assay on RPMI-8226 leukemia, in the assay with EKVX NSCLC and in the assay on UACC-62 melanoma was over 100 µM each time. In addition, the TGI with SNB-75 CNS, in the assay on HCT-116 colon, in the assay with SK-MEL-2 melanoma, with T-47D breast, with A549 NSCLC and in the assay on HCC-2998 colon was over 100 µM throughout. Further, the TGI in the assay on TK-10 renal was over 100 µM.
With `COc1ccc(-c2oc3cc(OC)c(OC)c(O)c3c(=O)c2OC)cc1`, the TGI in the assay on UO-31 renal, with SNB-19 CNS, with HCT-15 colon, in the assay with PC-3 prostate, with U251 CNS and in the assay with SK-MEL-5 melanoma was over 100 µM throughout. Further, the TGI is over 100 µM in the assay on HOP-62 NSCLC; over 100 µM with RPMI-8226 leukemia; over 100 µM with EKVX NSCLC; 84.4 µM with UACC-62 melanoma; 37.4 µM in the assay with SNB-75 CNS; over 100 µM in the assay on SR leukemia. In addition, the TGI in the assay with HCT-116 colon, in the assay with SK-MEL-2 melanoma, with T-47D breast, in the assay on A549 NSCLC, in the assay with HCC-2998 colon and in the assay on TK-10 renal was over 100 µM each time.
Consider `CC1(C)CC(=O)c2c(nc3c(ccc4ccccc43)c2-c2ccc(NC(=O)CCC(=O)Nc3ccc(-c4c5c(nc6c4ccc4ccccc46)CC(C)(C)CC5=O)cc3)cc2)C1`, for which the TGI in the assay on UO-31 renal, in the assay on SNB-19 CNS, in the assay with HCT-15 colon, with PC-3 prostate, in the assay with U251 CNS and in the assay with SK-MEL-5 melanoma was over 100 µM throughout. Also, the TGI with HOP-62 NSCLC, in the assay on RPMI-8226 leukemia, with EKVX NSCLC, in the assay on UACC-62 melanoma, with SNB-75 CNS and in the assay with SR leukemia was over 100 µM in each case. Further, the TGI in the assay on HCT-116 colon, in the assay with SK-MEL-2 melanoma, with T-47D breast, with A549 NSCLC and with TK-10 renal was over 100 µM throughout.
On to `COc1ccc(-c2c(-c3ccc(OC)cc3)n3c(=O)n(C)c(=O)n23)cc1`, for which the TGI with UO-31 renal was over 100 µM; in the assay on SNB-19 CNS, 97.7 µM; in the assay on HCT-15 colon, over 100 µM; in the assay on PC-3 prostate, over 100 µM; in the assay on U251 CNS, over 100 µM; with SK-MEL-5 melanoma, over 100 µM. For the same compound, the TGI in the assay on A498 renal was 95.3 µM; in the assay on NCI-H23 lung, over 100 µM; with HOP-62 NSCLC, over 100 µM; in the assay with RPMI-8226 leukemia, over 100 µM; in the assay on EKVX NSCLC, over 100 µM; in the assay on UACC-62 melanoma it was over 100 µM. In addition, the TGI was over 100 µM in the assay on SNB-75 CNS; over 100 µM in the assay on HCT-116 colon; over 100 µM in the assay with SK-MEL-2 melanoma; 57.1 µM in the assay on T-47D breast; over 100 µM with A549 NSCLC; over 100 µM in the assay on HCC-2998 colon. The TGI in the assay with TK-10 renal was over 100 µM.

For the origin of these results see PubChem BioAssay (NCI).
